The values below come from patent US8426392B2, “Method for providing emergency contraception” (Laboratoire HRA-Pharma, priority 2009, dated 2013).

For data set [1] the following is noted: in vivo.
Description: (§1) A specific food interaction study was conducted, in which the pharmacokinetic profile of ulipristal acetate and its main metabolite 3877A was evaluated after single administration of a 30-mg ulipristal acetate micronized tablet either under fasted conditions or after a high-fat breakfast. The main pharmacokinetic parameters were evaluated, including maximum plasma concentration (Cmax), area under the drug concentration curve (AUC) from time 0 to time of last determinable concentration or to infinity, and the time to maximum plasma concentration (tmax).
(§2) A second oral administration followed, after at least a 21-day wash-out period.
(§3) Analysis of Cmax and AUC was carried out by analysis of variance using PROC MIXED® program on the logarithmically transformed data. The 90% standard confidence interval limits for relative treatment differences was calculated by geometric means based on logarithmic transformation of the intra-individual ratios of Cmax and AUC.
(§4) The analysis of tmax was based on Wilocoxon-Mann-Whitney test adapted according to the methodology of Koch. Estimate for treatment difference and 90% confidence interval was estimated according to the method of Moses.
The nature of data set [2]: Phase III pregnancy rates after 30 mg ulipristal acetate tablet by food intake prior to treatment. The settings on record: for Observed PR (pregnancy rate): 30 mg tablet. The format is in vivo, human. The procedure: With respect to clinical efficacy, data on last food intake prior to study drug was collected in a subset of subjects (n=1185) included in the phase III program of development of the 30 mg ulipristal acetate tablet for emergency contraception. Pregnancy rates (PR) were compared between women who reported having eaten within two hours prior to treatment intake versus those who reported having eaten only earlier.

A short description of data set [3]: Food interaction study: bioavailability of a single 30 mg oral dose of ulipristal acetate in fed and fasting states. As to conditions: for AUC(0-t) / AUC(0-inf) / Cmax / Tmax / half-life: female, human, plasma, oral, 30 mg; for AUC(0-t): AUC0-t; for AUC(0-inf): AUC0-∞.
Description: as §1, §2, §3, §4
The conditions of data set [4]: used within 72 hours of unprotected intercourse; cited from earlier work.
[5] abbreviates: Fed vs. Fasted condition, ANOVA.
The mark [6] stands for this setting: fasted, single 30 mg tablet, mean ± SD.
Setting [7] is: fed (high-fat breakfast), single 30 mg tablet, mean ± SD.

“Also recorded” adds a separate entry of the source. Read-outs that look alike come from different tables or passages of the source. Marks after values point to notes of the source that are not given here.

On to `CNc1ccc([C@H]2C[C@@]3(C)[C@@H](CC[C@]3(OC(C)=O)C(C)=O)[C@@H]3CCC4=CC(=O)CCC4=C32)cc1` [3877A, 17α-acetoxy-11β-[4-N-methylamino-phenyl)-19-norpregna-4,9-diene-3,20-dione], for which the terminal elimination half-life entry in data set [1] (human) is reported as “around 30 h”. In data set [1] (human, 30 mg), the “AUC0-∞” value was 0.265 µg·h/mL, the exposure AUC(0-t) is 0.244 µg·h/mL, the Cmax was found to be 86.5 ng/mL and the Tmax worked out at 45 min. In addition, in data set [1] (human, 30 mg), the t1/2 was 30.0 ± 7.56^c h. In data set [1], the “AUC0-t, point estimate of the fed/fasted ratio of least squares geometric means” value is on record as 121.72^a %; the “AUC0-∞, point estimate of the fed/fasted ratio of least squares geometric means” value is given as 118.73^c %; the “Cmax, point estimate of the fed/fasted ratio of least squares geometric means” value is recorded as 62.45%.

Take `CC(=O)O[C@]1(C(C)=O)CC[C@H]2[C@@H]3CCC4=CC(=O)CCC4=C3[C@@H](c3ccc(N(C)C)cc3)C[C@@]21C` [ulipristal acetate, 17α-acetoxy-11β-[4-N,N-dimethylamino-phenyl)-19-norpregna-4,9-diene-3,20-dione]: the figures for the “Expected PR (pregnancy rate)” value in data set [2] (food intake 2 h or more before ulipristal acetate intake) and in data set [2] (food intake less than 2 h before ulipristal acetate intake) were 5.56% and 5.27%, respectively. In addition, the “Observed PR (pregnancy rate)” value in data set [2] (food intake 2 h or more before ulipristal acetate intake, n=905) came to 1.44%; in data set [2] (food intake less than 2 h before ulipristal acetate intake, n=279), 1.79%. Further, in data set [2] (phase III trials, eaten within two hours prior to intake versus earlier), the “effect of food on efficacy in emergency contraception (pregnancy rate)” value was “the same therapeutic efficacy; also recorded: no significant effect”. Moreover, the “AUC0-t, point estimate of the fed/fasted ratio of least squares geometric means” value in data set [3] (setting [5]) is given as 123.30^a %. Also, the “AUC0-∞, point estimate of the fed/fasted ratio of least squares geometric means” value in data set [3] (setting [5]) is 126.20^b %. In addition, in data set [3] (setting [5]), the “Cmax, point estimate of the fed/fasted ratio of least squares geometric means” value was 56.25%. For the same molecule, the “higher mean AUC0-∞ with a high-fat breakfast” value in data set [3] (compared with administration in a fasted state) is given as 25%. The tlag was 0.00 (0.00-0.00) h in data set [3] (fasted, single 30 mg tablet, median (range)) and 0.00 (0.00-0.50) h in data set [3] (fed (high-fat breakfast), single 30 mg tablet, median (range)). Moreover, the AUC(0-t) worked out at 467 ng·h/mL in data set [3] (setting [6]) and 566 ng·h/mL in data set [3] (setting [7]). Besides, the area under the curve AUC(0-inf) was 474 ng·h/mL in data set [3] (setting [6]) and 608 ng·h/mL in data set [3] (setting [7]). Also, the Cmax was 173 ng/mL in data set [3] (fasted, single 30 mg ulipristal acetate micronized tablet, healthy women, mean ± SD) and 99.2 ng/mL in data set [3] (fed (high-fat breakfast), single 30 mg ulipristal acetate tablet, mean ± SD). Further, the Tmax in data set [3] (Tmax (median), fasted state, as stated for the printed matter) was 0.75 h; in data set [3] (Tmax (median), with a high-fat breakfast, as stated for the printed matter), 3 h; in data set [3] (tmax, fasted, single 30 mg tablet, median (range)) it was 0.75 h; in data set [3] (tmax, fed (high-fat breakfast), single 30 mg tablet, median (range)), 3 h. Besides, the half-life in data set [3] (t1/2, fasted, single 30 mg tablet, mean ± SD) was 2230 ± 431 min; in data set [3] (t1/2, fed (high-fat breakfast), single 30 mg tablet, mean ± SD), 2160 ± 467 min; in data set [3] (terminal elimination half-life, average, independently of the food condition), roughly 2160 min. The “efficacy for preventing pregnancy compared with levonorgestrel” value in data set [4] was “as efficacious as levonorgestrel”.
